Experimental data as given in patent US11945862B2, “Compositions and methods for antibody production” (ImmunoGen, Inc., priority 2017, dated 2024).

Columns and labels:
M9346A antibody [1] = format: biochemical; details: 1 mM additive, conditions where control without additive was 100% fragmented
Procedure: Antibody reduction was induced in a biological assay by adding cell lysate to purified monoclonal antibody. […]. Increasing amounts of CHO cell lysate were added to mimic different percentages of cell lysis, ranging from […]. Fresh NADPH was added to a concentration of 400 μM. The mixtures were incubated in a water bath at 37° C. for 1 h. Free thiols were alkylated by addition of 10% (v/v) of 50 mM N-ethyl-maleimide (NEM) solution. Samples were analyzed by non-reduced sodium dodecyl sulfate denaturing capillary electrophoresis (NR-CE-SDS).
To test the capacity for protection further, the stringency of the assay was increased. […].

[2] = tested on: Humanized FOLR1 IgG1 antibody; test: Antibody disulfide reduction by CHO cell lysate (RIPA buffer), thiol per antibody by Ellman's assay; format: biochemical; details: 2 mM agent
Procedure: Lysates of CHO cells (˜60 million cells lysed in 0.6 ml RIPA buffer and clarified by centrifugation) were added to each of these mixtures. The pH values of all samples were adjusted to 7. […] The samples were incubated with 200 microliter immobilized-Protein A beads (RepliGen) and rotated at ambient temperature for 3 hours, after which the supernatant was removed and the beads washed with PBS. The thiol content of the immobilized antibody was determined by the addition of 0.2 ml of PBS containing 0.5 mM DTNB (Ellman's reagent) to the beads, rotation for about 10 minutes, centrifugation, and absorbance measurement of the supernatant at 412 nm.
The pH values of all samples were adjusted to 7. The samples were incubated with 200 microliter immobilized-Protein A beads (RepliGen) and rotated at ambient temperature for 3 hours, after which the supernatant was removed and the beads washed with PBS. The thiol content of the immobilized antibody was determined by the addition of 0.2 ml of PBS containing 0.5 mM DTNB (Ellman's reagent) to the beads, rotation for about 10 minutes, centrifugation, and absorbance measurement of the supernatant at 412 nm.
To test the effect of L-cystine bis(t-butyl ester) (CDBE) on protecting antibody disulfide bonds from reduction by CHO lysate, humanized FOLR1 IgG1 antibody (2 mg) was incubated with CHO lysate in RIPA buffer (0.6 ml lysate of 60 million CHO cells in 0.6 ml RIPA buffer, clarified by centrifugation) without or with 0.5 or 1 mM CDBE. The samples were rotated at ambient temperature with 200 microliter immobilized-Protein A beads (RepliGen) for 2 hours, after which the supernatant was removed and the beads washed with PBS. The thiol content of the immobilized antibody was determined by the addition of 0.2 ml of PBS containing 0.5 mM DTNB (Ellman's reagent) to the beads, centrifugation, and absorbance measurement of the supernatant at 412 nm.
The samples were rotated at ambient temperature with 200 microliter immobilized-Protein A beads (RepliGen) for 2 hours, after which the supernatant was removed and the beads washed with PBS. The thiol content of the immobilized antibody was determined by the addition of 0.2 ml of PBS containing 0.5 mM DTNB (Ellman's reagent) to the beads, centrifugation, and absorbance measurement of the supernatant at 412 nm.

Humanized IgG2 antibody = test: IgG2 disulfide reduction by CHO cell lysate, DTNB thiol assay; format: biochemical; details: 1 mM agent, 40% v/v CHO cell lysate, 5 hours, pH 7; control 0.84
Procedure: Humanized IgG2 antibody (1 mg/ml; final concentration) was incubated with 40% v/v CHO cell lysate (˜40 million cells lysed with 0.4 ml RIPA buffer and debris removed by centrifugation) in a total volume of 1 ml. The control sample was adjusted to pH 7 and rotated at RT for 5 hours with 100 μl protein A beads. […] After the incubation time of 5 hours, the supernatant was removed and the beads were washed three times with 10 ml PBS before the thiol amount of the immobilized antibody was analyzed by adding 0.5 mM DTNB and measuring the absorbance at 412 nm.

M9346A antibody [3] = format: biochemical; details: 1 mM additive, 100 μM DTT, 37° C., 1 h; control 80%
[4] = tested on: recombinant humanized IgG1 antibody; test: Antibody fragmentation in thawed HCCF under nitrogen or air with CDME, non-reducing SDS-Protein Lab Chip; format: biochemical
Procedure: A CHO cell culture producing recombinant humanized IgG1 antibody was subjected to centrifugation and the resulting harvest cell culture fluid (HCCF) was frozen at −80° C. […] At various time points, samples were quenched with N-ethylmaleimide (NEM), purified using immobilized Protein A, and analyzed for fragments using non-reducing SDS-Protein Lab Chip electrophoresis. […] In contrast, the sample overlayed with air became less fragmented with time, reaching a plateau of about 25% fragmentation at 20 hours.

humanized IgG4 = test: IgG4 disulfide reduction by CHO cell lysate, DTNB thiol assay; format: biochemical; details: 1 mM agent, 30% v/v CHO cell lysate, 4 hours, pH 7; control 7.7
Procedure: All samples were adjusted to pH 7 and incubated with 200 μl protein A beads for 4 hours while rotating at room temperature. After the incubation the supernatant was removed and beads washed three times with 10 ml PBS. To analyze the thiol content of the protein A-bound IgG4 antibody, the beads were incubated with a 0.5 mM DTNB solution for 5 min and the absorbance of the supernatant measured at 412 nm.

humanized FOLR1 IgG1 = test: Antibody fragmentation in HCCF treated with 20% (v/v) microfluidized CHO cells, non-reducing SDS-Protein Lab Chip; format: biochemical; details: 1 mM of each additive, 6 h; control 78% fragmentation
Procedure: The samples were quenched with 5 mM N-ethylmaleimide (NEM), purified using immobilized Protein A, and subjected to non-reducing SDS-Protein Lab Chip electrophoretic analysis.

humanized N901 antibody = test: Antibody disulfide reduction by CHO cell lysate (RIPA buffer), thiol/antibody by Ellman's assay; format: biochemical
Procedure: For all of the examples described below, cell damage was simulated by multiple freeze-thaw cycles of cells, by addition of RIPA buffer (50 mM Tris-HCl, pH 7.4, 1% NP-40, 0.5% sodium deoxycholate, 0.1% sodium dodecylsulfate), or by using microfluidizer. This damaged cell supernatant or lysate was then incubated with a buffered solution containing antibody with or without the anti-reduction agent being tested, following which the extent of the antibody-disulfide reduction was measured using Ellman's assay for thiol (P. W. Riddles, R. L. Blakeley, and B. Zerner, Methods Enzymol., 91, 49-60, 1983) or by non-reducing SDS protein LabChip analysis. The total thiol level present in the mixture of damaged cell supernatant/lysate was measured initially.
The effect of 1,2-naphthoquinone-4-sulfonic acid (NQS) on antibody-disulfide reduction was studied by incubating 1,2-naphthoquinone-4-sulfonic acid at several concentrations with antibody and damaged CHO lysate. The damaged CHO cell lysate was generated by the addition of 0.5 ml RIPA buffer (50 mM Tris-HCl, pH 7.4, 1% NP-40, 0.5% sodium deoxycholate, 0.1% sodium dodecylsulfate) to 100 million CHO cells. The thiol concentration in CHO cell lysate was measured by Ellman's assay as 2.1 mM.
Each sample contained pre-mixed 0.5 ml RIPA buffer (50 mM Tris-HCl, pH 7.4, 1% NP-40, 0.5% sodium deoxycholate, 0.1% sodium dodecylsulfate) with 1 mg humanized N901 antibody, with or without 1,2-naphthoquinone-4-sulfonic acid (25 micromolar, or 50 micromolar, or 100 micromolar), which was added to a cell pellet of 100 million CHO cells, and the resuspended cells were incubated at ambient temperature for 30 minutes, following which the cell debris were pelleted by centrifugation (16,000 g, 5 min). The supernatant from each sample was added to 50 microliter immobilized-Protein A beads (RepliGen) and rotated at ambient temperature for 3 hours, after which the supernatant was removed and the beads washed with PBS.
(§1) The thiol content of the immobilized antibody was determined by the addition of 0.6 ml of PBS containing 0.5 mM DTNB (Ellman's reagent) to the beads, rotation for about 10 minutes, centrifugation, and absorbance measurement of supernatant at 412 nm.
The effect of anthraquinone-2-sulfonic acid (AQS) on antibody-disulfide reduction was studied during co-incubation of anthraquinone-2-sulfonic acid with antibody and damaged CHO lysate. Each sample contained pre-mixed 1 ml RIPA buffer (50 mM Tris-HCl, pH 7.4, 1% NP-40, 0.5% sodium deoxycholate, 0.1% sodium dodecylsulfate) with 1 mg humanized N901 antibody, with or without 0.2 mM anthraquinone-2-sulfonic acid (AQS), which was added to a cell pellet of 100 million CHO cells, and the resuspended cells were incubated at ambient temperature for 30 minutes, following which the cell debris were pelleted by centrifugation (16,000 g, 5 min). The thiol concentration in CHO cell lysate was 1 mM (Ellman's assay).
as §1, with “The supernatant from each sample was added to 50 microliter immobilized-Protein A beads (RepliGen) and rotated at ambient temperature for 3 hours, after which the supernatant was removed and the beads washed with PBS. The” for “The”
In another experiment, 1 mg huN901 antibody was incubated with CHO lysate, with or without 0.4 mM anthraquinone-2-sulfonic acid for 4 hours. The mixture was then analyzed for thiol/antibody as above.
The thiol concentration in CHO cell lysate was 1 mM (Ellman's assay).
The supernatant from each sample was added to 50 microliter immobilized-Protein A beads (RepliGen) and rotated at ambient temperature for 3 hours, after which the supernatant was removed and the beads washed with PBS. […]

CHO cells = test: Viability of CHO cells after 1 day treatment; details: 0.75 mM, control 98.9%
[5] = Redox potential of antibody solution with media additive over a range of DTT concentrations; format: physicochemical; details: 1 mM additive, DTT 0.34 μM to 170 μM, 37° C., 1 h

## COC(=O)[C@@H](N)CSSC[C@H](N)C(=O)OC [CDME, L-cystine dimethyl ester]
M9346A antibody [1]
  protection at increased assay stringency: protective of disulfide reduction
[2]; 100 mM phosphate buffer pH 7, 2 hours
  decrease in disulfide reduction compared to the control: ~89%
[2]; 100 mM phosphate buffer pH 7, 2 hours, control 1.16
  thiol per antibody: ~0.13 thiol per antibody
[2]; 3 hours, pH 7, lysate of ~40 million cells, control 0.95
  thiol per antibody: about 0.02 thiol per antibody
[2]; 3 hours, pH 7, lysate of ~60 million cells, control 1.96
  thiol per antibody: about 0.25 thiol per antibody
Humanized IgG2 antibody
  reduced thiols per antibody: near-zero reduction
M9346A antibody [3]
  intact antibody: 100%
[4]; 1 mM CDME with nitrogen
  time the antibody was protected from reduction: up to 20 hours
[4]; 2 mM CDME with nitrogen
  time the antibody was protected from reduction: ≤ 45 h
[4]; combination of oxygen sparging with CDME
  expected protection against antibody disulfide bond reduction: highly effective
[4]; ~1 mM CDME with air overlay, up to 72 hours
  fragmentation with air overlay plus agent versus air overlay alone: lowered the fragmentation further throughout the course of the study
Humanized IgG4
  thiol groups per antibody: 0.004 thiol groups per antibody
Humanized FOLR1 IgG1
  fragmentation compared with no additive control: much lower fragmentations
Humanized N901 antibody; 0.05 mM agent, 3 hours, lysate thiol 1 mM, control 5.20
  thiol/antibody: 2.75 thiol/antibody
Humanized N901 antibody; 0.1 mM agent, 3 hours, lysate thiol 1 mM, control 5.20
  thiol/antibody: 1.85 thiol/antibody
Humanized N901 antibody; 0.2 mM agent, 3 hours, lysate thiol 1 mM, control 5.20
  thiol/antibody: 1.56 thiol/antibody
Humanized N901 antibody; 0.4 mM agent alone, 4 hours, control 4.34
  thiol/antibody: 1.37 thiol/antibody
Humanized N901 antibody; 0.5 mM agent, 3 hours, lysate thiol 1 mM, control 5.20
  thiol/antibody: 1.19 thiol/antibody
Humanized N901 antibody; 0.75 mM agent, 4° C. overnight, control 2.29
  thiol/antibody: 0.96 thiol/antibody
CHO cells
  viability of CHO cells: 98.9%
[5]
  modulation of redox potential: constant redox potential across all DTT concentrations
